# Data: patent US10053454B2 (Bristol-Myers Squibb Company, priority 2013, dated 2018)
# Biological target: BRD4 (Homo sapiens, UniProt O60885)
# Assay: Time Resolved Fluorescence Resonance Energy Transfer (TR-FRET) binding assay
# Conditions: one of the FRET assays described (BRD4 construct not given)
row,SMILES,IC50 [nM]
1,"Cc1noc(C)c1-c1cc(C(N)=O)c2c(c1)c1ccc(C(=O)N3CCC(C#N)CC3)cc1n2S(C)(=O)=O [Example 6, 7-((4-cyano-1-piperidinyl)carbonyl)-3-(3,5-dimethyl-4-isoxazolyl)-9-(methylsulfonyl)-9H-carbazole-1-carboxamide]",< 50
2,"Cc1noc(C)c1-c1cc(C#N)c2[nH]c3cc(C(=O)N4CCOCC4)ccc3c2c1 [Example 58, 3-(3,5-dimethyl-4-isoxazolyl)-7-(4-morpholinylcarbonyl)-9H-carbazole-1-carbonitrile]",< 5000
3,"Cc1noc(C)c1-c1cc(C(N)=O)c2c(c1)c1ccc(C(=O)N3CCC(F)(F)CC3)cc1n2S(=O)(=O)C1CC1 [Example 26, 9-(cyclopropylsulfonyl)-7-((4,4-difluoro-1-piperidinyl)carbonyl)-3-(3,5-dimethyl-4-isoxazolyl)-9H-carbazole-1-carboxamide]",< 50
4,"Cc1noc(C)c1-c1cc(C(N)=O)c2[nH]c3cc(C(=O)N4CCOCC4)ccc3c2c1 [Example 3, 3-(3,5-dimethyl-4-isoxazolyl)-7-(4-morpholinylcarbonyl)-9H-carbazole-1-carboxamide]",< 500
5,"Cc1noc(C)c1-c1cc(C(N)=O)c2c(c1)c1ccc(NC(=O)OC(C)(C)C)cc1n2CC1CC1 [Example 27, tert-butyl(8-carbamoyl-9-(cyclopropylmethyl)-6-(3,5-dimethyl-4-isoxazolyl)-9H-carbazol-2-yl)carbamate]",< 500
6,"Cc1noc(C)c1-c1cc(C(N)=O)c2c(c1)c1ccc(C(C)(C)O)cc1n2CC1CC1 [Example 53, 9-(cyclopropylmethyl)-3-(3,5-dimethyl-4-isoxazolyl)-7-(1-hydroxy-1-methylethyl)-9H-carbazole-1-carboxamide]",< 500
7,"CC(=O)Nc1ccc2c3cc(-c4c(C)noc4C)cc(C(N)=O)c3n(CC3CC3)c2c1 [Example 29, 7-acetamido-9-(cyclopropylmethyl)-3-(3,5-dimethyl-4-isoxazolyl)-9H-carbazole-1-carboxamide]",< 500
8,"Cc1noc(C)c1-c1cc(C(N)=S)c2c(c1)c1ccc(C(=O)N3CCOCC3)cc1n2CC1CC1 [Example 68, 9-(cyclopropylmethyl)-3-(3,5-dimethyl-4-isoxazolyl)-7-(4-morpholinylcarbonyl)-9H-carbazole-1-carbothioamide]",< 5000
9,"CNc1ccc2c3cc(-c4c(C)noc4C)cc(C(N)=O)c3n(CC3CC3)c2c1 [Example 37, 9-(cyclopropylmethyl)-3-(3,5-dimethyl-4-isoxazolyl)-7-(methylamino)-9H-carbazole-1-carboxamide]",< 500
10,"Cc1noc(C)c1-c1cc(C(N)=O)c2c(c1)c1ccc(N3CCOC3=O)cc1n2CC1CC1 [Example 45, 9-(cyclopropylmethyl)-3-(3,5-dimethyl-4-isoxazolyl)-7-(2-oxo-1,3-oxazolidin-3-yl)-9H-carbazole-1-carboxamide]",< 500
11,"COc1ccc2c3cc(-c4c(C)noc4C)cc(C(N)=O)c3n(CC3CC3)c2c1 [Example 49, 9-(cyclopropylmethyl)-3-(3,5-dimethyl-4-isoxazolyl)-7-methoxy-9H-carbazole-1-carboxamide]",< 50
12,"Cc1noc(C)c1-c1cc(C(N)=O)c2c(c1)c1ccc(C(C)(C)N3CCOCC3)cc1n2CC1CC1 [Example 52, 9-(cyclopropylmethyl)-3-(3,5-dimethyl-4-isoxazolyl)-7-(1-methyl-1-(4-morpholinyl)ethyl)-9H-carbazole-1-carboxamide]",< 50
13,"Cc1noc(C)c1-c1cc(C(N)=O)c2c(c1)c1ccc(N)cc1n2CC1CC1 [Example 28, 7-amino-9-(cyclopropylmethyl)-3-(3,5-dimethyl-4-isoxazolyl)-9H-carbazole-1-carboxamide]",< 500
14,"Cc1oncc1-c1cc(C(N)=O)c2c(c1)c1ccc(C(=O)N3C[C@@H](C)O[C@@H](C)C3)cc1n2CC1CC1 [Example 57, 9-(cyclopropylmethyl)-7-((cis-2,6-dimethyl-4-morpholinyl)carbonyl)-3-(5-methyl-4-isoxazolyl)-9H-carbazole-1-carboxamide]",< 500
15,"Cc1noc(C)c1-c1cc(C(N)=O)c2[nH]c3cc(C(=O)N4CCCCC4)ccc3c2c1 [Example 1, 3-(3,5-dimethyl-4-isoxazolyl)-7-(1-piperidinylcarbonyl)-9H-carbazole-1-carboxamide]",< 500
16,"Cc1noc(C)c1-c1cc(C(N)=O)c2c(c1)c1cc(S(C)(=O)=O)ccc1n2S(=O)(=O)C1CC1 [Example 77, 9-(cyclopropylsulfonyl)-3-(3,5-dimethyl-4-isoxazolyl)-6-(methylsulfonyl)-9H-carbazole-1-carboxamide]",< 500
17,"Cc1noc(C)c1-c1cc(C(N)=S)c2[nH]c3cc(C(=O)N4CCOCC4)ccc3c2c1 [Example 64, 3-(3,5-dimethyl-4-isoxazolyl)-7-(4-morpholinylcarbonyl)-9H-carbazole-1-carbothioamide]",< 5000

row,SMILES,IC50 [nM]
1,"Cc1noc(C)c1-c1cc(C(N)=O)c2c(c1)c1ccc(C(=O)N3CCCOCC3)cc1n2S(C)(=O)=O [Example 17, 3-(3,5-dimethyl-4-isoxazolyl)-9-(methylsulfonyl)-7-(1,4-oxazepan-4-ylcarbonyl)-9H-carbazole-1-carboxamide]",< 50
2,"Cc1noc(C)c1-c1cc(C(N)=O)c2c(c1)c1ccc(OC(=O)N3CCOCC3)cc1n2CC1CC1 [Example 50, 8-carbamoyl-9-(cyclopropylmethyl)-6-(3,5-dimethyl-4-isoxazolyl)-9H-carbazol-2-yl morpholine-4-carboxylate]",< 500
3,"Cc1noc(C)c1-c1cc(C(N)=O)c2c(c1)c1cc(S(C)(=O)=O)ccc1n2CC1CC1 [Example 78, 9-(cyclopropylmethyl)-3-(3,5-dimethyl-4-isoxazolyl)-6-(methylsulfonyl)-9H-carbazole-1-carboxamide]",< 50
4,"CCn1c2cc(C(=O)N3CCOCC3)ccc2c2cc(-c3c(C)noc3C)cc(C(N)=S)c21 [Example 67, 3-(3,5-dimethyl-4-isoxazolyl)-9-ethyl-7-(4-morpholinylcarbonyl)-9H-carbazole-1-carbothioamide]",< 500
5,"Cc1noc(C)c1-c1cc(C(N)=O)c2c(c1)c1ccc(C(=O)N3CC(F)(F)C3)cc1n2S(C)(=O)=O [Example 11, 7-((3,3-difluoro-1-azetidinyl)carbonyl)-3-(3,5-dimethyl-4-isoxazolyl)-9-(methylsulfonyl)-9H-carbazole-1-carboxamide]",< 50
6,"Cc1noc(C)c1-c1cc(C(N)=O)c2c(c1)c1ccc(C(=O)N3CCCOCC3)cc1n2S(=O)(=O)C1CC1 [Example 25, 9-(cyclopropylsulfonyl)-3-(3,5-dimethyl-4-isoxazolyl)-7-(1,4-oxazepan-4-ylcarbonyl)-9H-carbazole-1-carboxamide]",< 50
7,"Cc1noc(C)c1-c1cc(C(N)=O)c2c(c1)c1ccc(C=O)cc1n2CC1CC1 [Example 47, 9-(cyclopropylmethyl)-3-(3,5-dimethyl-4-isoxazolyl)-7-formyl-9H-carbazole-1-carboxamide]",< 500
8,"CC(=O)n1c2cc(C(=O)N3C[C@@H](C)O[C@@H](C)C3)ccc2c2cc(-c3c(C)noc3C)cc(C(N)=O)c21 [Example 60, 9-acetyl-3-(3,5-dimethyl-4-isoxazolyl)-7-(cis-2,6-dimethylmorpholine-4-carbonyl)-9H-carbazole-1-carboxamide]",< 5000
9,"Cc1noc(C)c1-c1cc(C(N)=O)c2c(c1)c1c(C(=O)N3C[C@@H](C)O[C@@H](C)C3)cc(OC(F)(F)F)cc1n2S(C)(=O)=O [Example 76, 3-(3,5-dimethyl-4-isoxazolyl)-5-((cis-2,6-dimethyl-4-morpholinyl)carbonyl)-9-(methylsulfonyl)-7-(trifluoromethoxy)-9H-carbazole-1-carboxamide]",< 50
10,"CCNC(=O)n1c2cc(C(=O)N3C[C@@H](C)O[C@@H](C)C3)ccc2c2cc(-c3c(C)noc3C)cc(C(N)=O)c21 [Example 61, 3-(3,5-dimethyl-4-isoxazolyl)-7-(cis-2,6-dimethylmorpholine-4-carbonyl)-N9-ethyl-9H-carbazole-1,9-dicarboxamide]",< 5000
11,"COc1ccc2c(c1)c1cc(-c3c(C)noc3C)cc(C(N)=O)c1n2S(C)(=O)=O [Example 72, 3-(3,5-dimethylisoxazol-4-yl)-6-methoxy-9-(methylsulfonyl)-9H-carbazole-1-carboxamide]",< 500
12,"Cc1noc(C)c1-c1cc(C(N)=O)c2c(c1)c1ccc(C(=O)N3CCCC(N(C)C)C3)cc1n2S(C)(=O)=O (stereo not shown) [Example 10, 7-((3-(dimethylamino)-1-piperidinyl)carbonyl)-3-(3,5-dimethyl-4-isoxazolyl)-9-(methylsulfonyl)-9H-carbazole-1-carboxamide]",< 50
13,"Cc1noc(C)c1-c1cc(C(N)=O)c2c(c1)c1ccc(C(=O)N3CC(F)C3)cc1n2S(C)(=O)=O [Example 7, 3-(3,5-dimethyl-4-isoxazolyl)-7-((3-fluoro-1-azetidinyl)carbonyl)-9-(methylsulfonyl)-9H-carbazole-1-carboxamide]",< 50
14,"Cc1noc(C)c1-c1cc(C(N)=O)c2c(c1)c1ccc(C(=O)N(C)C)cc1n2S(C)(=O)=O [Example 12, 3-(3,5-dimethyl-4-isoxazolyl)-N7,N7-dimethyl-9-(methylsulfonyl)-9H-carbazole-1,7-dicarboxamide]",< 50
15,"Cc1n[nH]c(C)c1-c1cc(C(N)=O)c2c(c1)c1ccc(C(=O)N3C[C@@H](C)O[C@@H](C)C3)cc1n2CC1CC1 [Example 83, 9-(cyclopropylmethyl)-7-((cis-2,6-dimethyl-4-morpholinyl)carbonyl)-3-(3,5-dimethyl-1H-pyrazol-4-yl)-9H-carbazole-1-carboxamide]",< 500
16,"Cc1noc(C)c1-c1cc(C(N)=O)c2c(c1)c1ccc(C(=O)N3CCC(N(C)C)C3)cc1n2S(C)(=O)=O (stereo not shown) [Example 18, 7-((3-(dimethylamino)-1-pyrrolidinyl)carbonyl)-3-(3,5-dimethyl-4-isoxazolyl)-9-(methylsulfonyl)-9H-carbazole-1-carboxamide]",< 50
17,"CC(=O)N(C)c1ccc2c3cc(-c4c(C)noc4C)cc(C(N)=O)c3n(CC3CC3)c2c1 [Example 40, 7-(acetyl(methyl)amino)-9-(cyclopropylmethyl)-3-(3,5-dimethyl-4-isoxazolyl)-9H-carbazole-1-carboxamide]",< 50
